Test results from patent US11331369B2, “Endoparasitic depsipeptides” (Zoetis Services LLC, priority 2017, dated 2022).

Tests used:
Assay type in all cases: cell-based
[1] = tested on: 4th stage larvae (L4) of Dirofilaria immitis; test: Dirofilaria immitis, L4 Stage (DiL4) In Vitro Assay; conditions: Dirofilaria immitis, 72 h, read-out: DiL4 Minimum Effective Dose (MED), approximately 72 hours incubation; L4 larvae assessed for survival or paralysis
[2] = tested on: third stage larvae of Haemonchus contortus; test: Haemonchus contortus L3 (HcL3) Assay; conditions: 96 h, read-out: HcL3 Minimum Effective Dose (MED)
[3] = tested on: microfilariae of Dirofilaria immitis; test: Dirofilaria immitis, Microfilaria (DiMF) In vitro Assay; conditions: 72 h, read-out: DiMF Minimum Effective Dose (MED), approximately 72 hours incubation, microfilariae assessed for survival or paralysis

SMILES	minimal effective concentration [1] [µM]	minimal effective concentration [2] [µM]	minimal effective concentration [3] [µM]
CC(C)C[C@H]1C(=O)O[C@H](Cc2ccc(C(C)(C)n3cc(OC(C)C)cn3)cc2)C(=O)N(C)[C@@H](CC(C)C)C(=O)O[C@H](C)C(=O)N(C)[C@@H](CC(C)C)C(=O)O[C@H](Cc2ccc(C(C)(C)n3cc(OC(C)C)cn3)cc2)C(=O)N(C)[C@@H](CC(C)C)C(=O)O[C@H](C)C(=O)N1C [Example 1c-10, (3S,6R,9S,12R,15S,18R,21S,24R)-3,9,15,21-tetraisobutyl-6,18-bis(4-(2-(4-isopropoxy-1H-pyrazol-1-yl)propan-2-yl)benzyl)-4,10,12,16,22,24-hexamethyl-1,7,13,19-tetraoxa-4,10,16,22-tetraazacyclotetracosan-2,5,8,11,14,17,20,23-octaone]	≤ 0.0001	≤ 1	
CC(C)C[C@H]1C(=O)O[C@H](Cc2ccc(Cn3ncnc3CC3CC3)cc2)C(=O)N(C)[C@@H](CC(C)C)C(=O)O[C@H](C)C(=O)N(C)[C@@H](CC(C)C)C(=O)O[C@H](Cc2ccc(Cn3ncnc3CC3CC3)cc2)C(=O)N(C)[C@@H](CC(C)C)C(=O)O[C@H](C)C(=O)N1C [Example 9-55, (3S,6R,9S,12R,15S,18R,21S,24R)-6,18-bis(4-((5-(cyclopropylmethyl)-1H-1,2,4-triazol-1-yl)methyl)benzyl)-3,9,15,21-tetraisobutyl-4,10,12,16,22,24-hexamethyl-1,7,13,19-tetraoxa-4,10,16,22-tetraazacyclotetracosan-2,5,8,11,14,17,20,23-octaone]	0.0001 to 0.001	≤ 1	
C#Cc1cnn(Cc2ccc(C[C@H]3OC(=O)[C@H](CC(C)C)N(C)C(=O)[C@@H](C)OC(=O)[C@H](CC(C)C)N(C)C(=O)[C@@H](Cc4ccc(Cn5cc(C#C)cn5)cc4)OC(=O)[C@H](CC(C)C)N(C)C(=O)[C@@H](C)OC(=O)[C@H](CC(C)C)N(C)C3=O)cc2)c1 [Example 1b-32, (3S,6R,9S,12R,15S,18R,21S,24R)-6,18-bis({4-[(4-ethynyl-1H-pyrazol-1 yl)methyl]phenyl}methyl)-4,10,12,16,22,24-hexamethyl-3,9,15,21-tetrakis(2-methylpropyl)-1,7,13,19-tetraoxa-4,10,16,22-tetraazacyclotetracosan-2,5,8,11,14,17,20,23-octaone]	0.0001 to 0.001	10 to 100	
CC(C)C[C@H]1C(=O)O[C@H](Cc2ccc(Cn3cc(-c4ccncn4)cn3)cc2)C(=O)N(C)[C@@H](CC(C)C)C(=O)O[C@H](C)C(=O)N(C)[C@@H](CC(C)C)C(=O)O[C@H](Cc2ccc(Cn3cc(-c4ccncn4)cn3)cc2)C(=O)N(C)[C@@H](CC(C)C)C(=O)O[C@H](C)C(=O)N1C [Example 1b-86, (3S,6R,9S,12R,15S,18R,21S,24R)-3,9,15,21-tetraisobutyl-4,6,10,16,18,22-hexamethyl-12,24-bis(4-((4-(pyrimidin-4-yl)-1H-pyrazol-1-yl)methyl)benzyl)-1,7,13,19-tetraoxa-4,10,16,22-tetraazacyclotetracosan-2,5,8,11,14,17,20,23-octaone]	0.0001 to 0.001	10 to 100	
COc1ccn(Cc2ccc(C[C@H]3OC(=O)[C@H](CC(C)C)N(C)C(=O)[C@@H](C)OC(=O)[C@H](CC(C)C)N(C)C(=O)[C@@H](Cc4ccc(Cn5ccc(OC)n5)cc4)OC(=O)[C@H](CC(C)C)N(C)C(=O)[C@@H](C)OC(=O)[C@H](CC(C)C)N(C)C3=O)cc2)n1 [Example 1b-115, (3S,6R,9S,12R,15S,18R,21S,24R)-3,9,15,21-tetraisobutyl-6,18-bis(4-((3-methoxy-1H-pyrazol-1-yl)methyl)benzyl)-4,10,12,16,22,24-hexamethyl-1,7,13,19-tetraoxa-4,10,16,22-tetraazacyclotetracosan-2,5,8,11,14,17,20,23-octaone]	≤ 0.0001	≤ 1	
CC(C)C[C@H]1C(=O)O[C@H](Cc2ccc(Cn3cccc3C#N)cc2)C(=O)N(C)[C@@H](CC(C)C)C(=O)O[C@H](C)C(=O)N(C)[C@@H](CC(C)C)C(=O)O[C@H](Cc2ccccc2)C(=O)N(C)[C@@H](CC(C)C)C(=O)O[C@H](C)C(=O)N1C [Example 10-13, 1-[[4-[[(2R,5S,8R,11S,14R,17S,20R,23S)-14-benzyl-5,11,17,23-tetraisobutyl-4,8,10,16,20,22-hexamethyl-3,6,9,12,15,18,21,24-octaoxo-1,7,13,19-tetraoxa-4,10,16,22-tetrazacyclotetracos-2-yl]methyl]phenyl]methyl]pyrrole-2-carbonitrile]	0.0001 to 0.001	1 to 10	
CC(C)C[C@H]1C(=O)O[C@H](Cc2ccc(Cn3cccc3C#N)cc2)C(=O)N(C)[C@@H](CC(C)C)C(=O)O[C@H](C)C(=O)N(C)[C@@H](CC(C)C)C(=O)O[C@H](Cc2ccc(Cn3cccc3C#N)cc2)C(=O)N(C)[C@@H](CC(C)C)C(=O)O[C@H](C)C(=O)N1C [Example 9-16, 1-[[4-[[(2R,5S,8R,11S,14R,17S,20R,23S)-14-[[4-[(2-cyanopyrrol-1-yl)methyl]phenyl]methyl]-5,11,17,23-tetraisobutyl-4,8,10,16,20,22-hexamethyl-3,6,9,12,15,18,21,24-octaoxo-1,7,13,19-tetraoxa-4,10,16,22-tetrazacyclotetracos-2-yl]methyl]phenyl]methyl]pyrrole-2-carbonitrile]	≤ 0.0001	≤ 1	
CC(C)C[C@H]1C(=O)O[C@H](Cc2ccc(Cn3cc(F)cn3)cc2)C(=O)N(C)[C@@H](CC(C)C)C(=O)O[C@H](C)C(=O)N(C)[C@@H](CC(C)C)C(=O)O[C@H](Cc2ccc(Cn3cc(F)cn3)cc2)C(=O)N(C)[C@@H](CC(C)C)C(=O)O[C@H](C)C(=O)N1C [Example 1b-17, (3S,6R,9S,12R,15S,18R,21S,24R)-6,18-bis(4-((4-fluoro-1H-pyrazol-1-yl)methyl)benzyl)-3,9,15,21-tetraisobutyl-4,10,12,16,22,24-hexamethyl-1,7,13,19-tetraoxa-4,10,16,22-tetraazacyclotetracosan-2,5,8,11,14,17,20,23-octaone]	0.0001 to 0.001	1 to 10	
CC(C)C[C@H]1C(=O)O[C@H](Cc2ccc(Cn3c(C#N)ccc3C#N)cc2)C(=O)N(C)[C@@H](CC(C)C)C(=O)O[C@H](C)C(=O)N(C)[C@@H](CC(C)C)C(=O)O[C@H](Cc2ccc(Cn3c(C#N)ccc3C#N)cc2)C(=O)N(C)[C@@H](CC(C)C)C(=O)O[C@H](C)C(=O)N1C [Example 9-12, 1,1′-(((((2R,5S,8R,11S,14R,17S,20R,23S)-5,11,17,23-tetraisobutyl-4,8,10,16,20,22-hexamethyl-3,6,9,12,15,18,21,24-octaoxo-1,7,13,19-tetraoxa-4,10,16,22-tetraazacyclotetracosane-2,14-diyl)bis(methylene))bis(4,1-phenylene))bis(methylene))bis(1H-pyrrole-2,5-dicarbonitrile)]	≤ 0.0001	≤ 1	
CC(C)C[C@H]1C(=O)O[C@H](Cc2ccc(CN3C(=O)CSc4cccnc43)cc2)C(=O)N(C)[C@@H](CC(C)C)C(=O)O[C@H](C)C(=O)N(C)[C@@H](CC(C)C)C(=O)O[C@H](Cc2ccc(CN3C(=O)CSc4cccnc43)cc2)C(=O)N(C)[C@@H](CC(C)C)C(=O)O[C@H](C)C(=O)N1C [Example 9-61, (3S,6R,9S,12R,15S,18R,21S,24R)-3,9,15,21-tetraisobutyl-4,6,10,16,18,22-hexamethyl-12,24-bis[[4-[(3-oxopyrido[3,2-b][1,4]thiazin-4-yl)methyl]phenyl]methyl]-1,7,13,19-tetraoxa-4,10,16,22-tetrazacyclotetracosane-2,5,8,11,14,17,20,23-octaone]	0.001 to 0.01		0.01 to 0.1
CC(C)C[C@H]1C(=O)O[C@H](Cc2cccc(Cn3ccnc3Br)c2)C(=O)N(C)[C@@H](CC(C)C)C(=O)O[C@H](C)C(=O)N(C)[C@@H](CC(C)C)C(=O)O[C@H](Cc2ccc(Cn3ccnc3Br)cc2)C(=O)N(C)[C@@H](CC(C)C)C(=O)O[C@H](C)C(=O)N1C [Example 7-3, (3S,6R,9S,12R,15S,18R,21S,24R)-6-[[3-[(2-bromoimidazol-1-yl)methyl]phenyl]methyl]-18-[[4-[(2-bromoimidazol-1-yl)methyl]phenyl]methyl]-3,9,15,21-tetraisobutyl-4,10,12,16,22,24-hexamethyl-1,7,13,19-tetraoxa-4,10,16,22-tetrazacyclotetracosane-2,5,8,11,14,17,20,23-octaone]	0.0001 to 0.001		0.001 to 0.01
COc1ccc(-c2ccnn2Cc2ccc(C[C@H]3OC(=O)[C@H](CC(C)C)N(C)C(=O)[C@@H](C)OC(=O)[C@H](CC(C)C)N(C)C(=O)[C@@H](Cc4ccc(Cn5nccc5-c5ccc(OC)cc5)cc4)OC(=O)[C@H](CC(C)C)N(C)C(=O)[C@@H](C)OC(=O)[C@H](CC(C)C)N(C)C3=O)cc2)cc1 [Example 1b-149, (3S,6R,9S,12R,15S,18R,21S,24R)-3,9,15,21-tetraisobutyl-6,18-bis(4-((5-(4-methoxyphenyl)-1H-pyrazol-1-yl)methyl)benzyl)-4,10,12,16,22,24-hexamethyl-1,7,13,19-tetraoxa-4,10,16,22-tetraazacyclotetracosan-2,5,8,11,14,17,20,23-octaone]	0.001 to 0.01		0.01 to 0.1
Cc1nn(Cc2ccc(C[C@H]3OC(=O)[C@H](CC(C)C)N(C)C(=O)[C@@H](C)OC(=O)[C@H](CC(C)C)N(C)C(=O)[C@@H](Cc4ccc(Cn5ncc(OC(C)C)c5C)cc4)OC(=O)[C@H](CC(C)C)N(C)C(=O)[C@@H](C)OC(=O)[C@H](CC(C)C)N(C)C3=O)cc2)cc1OC(C)C [Example 1a-39, (3S,6R,9S,12R,15S,18R,21S,24R)-3,9,15,21-tetraisobutyl-6-[[4-[(4-isopropoxy-3-methyl-pyrazol-1-yl)methyl]phenyl]methyl]-18-[[4-[(4-isopropoxy-5-methyl-pyrazol-1-yl)methyl]phenyl]methyl]-4,10,12,16,22,24-hexamethyl-1,7,13,19-tetraoxa-4,10,16,22-tetrazacyclotetracosane-2,5,8,11,14,17,20,23-octaone]	0.001 to 0.01		0.01 to 0.1
